The subject of this assay is M. tuberculosis H37Ra in murine alveolar macrophage-like cell line MH-S. As to the kind of experiment: microbe, parasite or virus in culture. The following applies: Mycobacterium tuberculosis, 24 h. The assay is classed as cell-based.

Molecules are shown by their SMILES.

In general, IC50 refers to the concentration that gives 50% inhibition. A higher IC50 goes with weaker potency. On to `C=C(NC(=O)C(=C)NC(=O)c1csc(C2=N[C@@H]3c4csc(n4)[C@H]4NC(=O)c5csc(n5)[C@H]([C@](C)(O)[C@@H](C)O)NC(=O)[C@H]5CSC(=N5)/C(=C/C)NC(=O)[C@H]([C@@H](C)O)NC(=O)c5csc(n5)[C@]3(CC2)NC(=O)[C@H](C)NC(=O)C(=C)NC(=O)[C@H](C)NC(=O)[C@H]([C@@H](C)CC)N[C@@H]2C=Cc3c([C@H](C)O)cc(nc3[C@H]2O)C(=O)O[C@@H]4C)n1)C(N)=O` [thiostrepton, Thiostrepton], for which the IC50 was 30 nM. This lies in the double-digit nanomolar range.
